What all share (assay): minimum inhibitory concentration (MIC), agar dilution
Format in all cases: cell-based
Background: In agar dilution the substance is mixed into plates at graded concentrations.

Assay [1] has as its system Bacillus subtilis. The procedure: (§1) The minimum inhibitory concentration (MIC) for the compound of Example 19, i.e., (2-nitrophenyl)-iodonium 2,2-dimethyl-4,6-dioxo-1,3-dioxan-5-ylide was determined for 9 bacteria (using nutrient agar) and 5 yeast and fungi (using malt yeast agar). A one percent solution of this test compound (i.e., the compound of Example 19) was prepared in a mixture of acetone-water. Nutrient agar was prepared at pH 6.8 using deionized water according to standard Difco procedures. Malt yeast agar was prepared by adding 3 g Bacto yeast extract and 42 g Bacto Malt agar per liter of deionized water. The agar (nutrient agar when testing with bacteria and malt yeast agar when testing with yeast and fungi) was dispensed in 30 mL aliquots into 25×200 millimeter (mm) test tubes, capped and autoclaved for 15 min at 115° C. The test tubes containing the agar were cooled in a water bath until the temperature of the agar was 48° C. and then an appropriate amount of the one percent solution of the test compound was added (except in the controls where no test compound was added with the acetone-water) to the respective test tubes so that final concentrations of 500, 250, 100, 50, 25, 10, 5, 2.5, 1.0 and 0 parts per million (ppm) of the test compound in the agar were obtained. The agar solutions were each mixed and poured into individual petri plates so that each petri plate contained agar having a known concentration of test compound dispersed therein. After drying for 24 hr, the petri plates were inoculated with bacteria when the petri plates contained nutrient broth agar or with fungi and yeast when the petri plates contained malt yeast agar.
(§2) The inoculation with bacteria was accomplished using the following procedure. Twenty-four hr cultures of each of the bacteria were prepared by incubating the respective bacteria in tubes containing nutrient broth for 24 hr at 30° C. in a shaker. Dilutions of each of the 24 hr cultures were made so that 9 separate suspensions (one for each of the 9 test bacteria) were made, each containing about 10^8 colony forming units (CFU) per mL of suspension of a particular bacteria. Aliquots of 0.3 mL of each of the above suspensions were used to fill individual wells of a Steer's Replicator. For each microbial suspension, 0.3 mL was used to fill 3 wells (i.e., 3 wells of 0.3 mL each) so that for the 9 different bacteria 27 wells were filled. The Steer's Replicator was then used to inoculate the petri plates.
(§3) The petri plates were incubated at 30° C. for 48 hr and then read to determine if the test compound (i.e., the compound of Example 19) which was incorporated into the agar prevented growth of the respective bacteria. The minimum inhibitory concentration (MIC) for each bacteria was defined as the lowest concentration of the test compound which prevented growth of that bacteria.
(§4) In a similar procedure, the MIC (in ppm) of the compound of Example 11 (i.e., (2-nitrophenyl)-iodonium 2,6-dioxocyclohexylide) for various organisms was determined at an acid pH (about 6.8) and at an alkaline pH (about 8.2).
(§5) Using similar procedures, the MIC's (in ppm) of various compounds of Formula I and/or Formula II were determined for the organisms Enterobacter aerogenes and Bacillus subtilis in a neutral solution (pH about 6.8) and in an alkaline medium (pH about 8.2).

In assay [2] the test system is Enterobacter aerogenes. On the procedure: as §1, §2, §3, §4, §5
The test system of assay [3] is Escherichia coli. To be noted: ATCC 11229. The procedure:
as §1, §2, §3, §4

Assay [4] relates to Klebsiella pneumoniae. To be noted: ATCC 8308. On the procedure: as §1, §2, §3, §4
Assay [5] has as its system Proteus vulgaris. To be noted: ATCC 881. The procedure: as §1, §2, §3, §4
Assay [6] concerns Pseudomonas aeruginosa PRD-10. Conditions: ATCC 15442. The procedure:
as §1, §2, §3, §4

Assay [7] relates to Pseudomonas aeruginosa. To be noted: ATCC 10145. The procedure:
as §1, §2, §3, §4

The subject of assay [8] is Salmonella choleraesuis. The procedure: as §1, §2, §3, §4
The test system of assay [9] is Staphylococcus aureus. To be noted: ATCC 8538. The procedure:
as §1, §2, §3, §4

Setting [10] is: Bacillus subtilis, alkaline growth medium (pH = 8.2), read-out: MIC (ABS).
Setting [11] is: Bacillus subtilis, neutral growth medium (pH = 6.8), read-out: MIC (NBS).
[12] abbreviates: Klebsiella aerogenes, alkaline growth medium (pH = 8.2), read-out: MIC (AEA).
[13] abbreviates: Klebsiella aerogenes, neutral growth medium (pH = 6.8), read-out: MIC (NEA).

Values after ≈ are worked out from the molar mass of the structure shown. Like-named read-outs stand apart in the source and are kept apart here.

On to `O=C1CCCC(=O)[C-]1[I+]c1ccccc1[N+](=O)[O-]` [Example 1, (2-nitrophenyl)-iodonium 2,6-dioxocyclohexylide], for which the MIC was at most 1.0 ppm in assay [1] (ATCC 8473, Alkaline Medium (pH about 8.2)); at most 1 µg/mL in [1] (Bacillus subtilis, ATCC8473, ATCC 8473, Neutral Medium (pH about 6.8), read-out: MIC); at most 1.0 ppm in [2] (ATCC 13048, Alkaline Medium (pH about 8.2)); at most 1 µg/mL in assay [2] (Klebsiella aerogenes, ATCC13048, ATCC 13048, Neutral Medium (pH about 6.8), read-out: MIC); at most 1.0 ppm in assay [3] (Alkaline Medium (pH about 8.2)); at most 1 µg/mL in assay [3] (Escherichia coli, ATCC11229, Neutral Medium (pH about 6.8), read-out: MIC). Further, the MIC in [4] (Alkaline Medium (pH about 8.2)) is at most 1.0 ppm; in assay [4] (Klebsiella pneumoniae, ATCC8308, Neutral Medium (pH about 6.8), read-out: MIC), at most 1 µg/mL; in assay [5] (Alkaline Medium (pH about 8.2)), at most 1.0 ppm; in [5] (Proteus vulgaris, ATCC881, Neutral Medium (pH about 6.8), read-out: MIC), at most 1 µg/mL; in assay [6] (Alkaline Medium (pH about 8.2)) it was at most 1.0 ppm; in assay [6] (Pseudomonas aeruginosa, ATCC15442, Neutral Medium (pH about 6.8), read-out: MIC), at most 1 µg/mL. Also, the MIC in assay [7] (Alkaline Medium (pH about 8.2)) is at most 1.0 ppm; in assay [7] (Pseudomonas aeruginosa, ATCC10145, Neutral Medium (pH about 6.8), read-out: MIC), at most 1 µg/mL; in [8] (ATCC 10708, Alkaline Medium (pH about 8.2)), at most 1.0 ppm; in assay [8] (Salmonella enterica, ATCC 10708 / CHOLERAESUIS, Neutral Medium (pH about 6.8), read-out: MIC) it was at most 1 µg/mL; in [9] (Alkaline Medium (pH about 8.2)), at most 1.0 ppm; in assay [9] (Staphylococcus aureus, ATCC8538, Neutral Medium (pH about 6.8), read-out: MIC) it was at most 1 µg/mL.

On to `CS(=O)(=O)c1ccccc1[I+][c-]1c(=O)cc[nH]c1=O` [Example 42, ((2-Methylsulfonyl)phenyl)-iodonium 1,2,3,4-tetrahydro-2,4-dioxopyridine3-ylide], for which the MIC in [1] (setting [10]) is 500 µg/mL (≈ 1280 µM); in [1] (setting [11]), 500 µg/mL (≈ 1280 µM); in [2] (setting [12]), over 500 µg/mL; in assay [2] (setting [13]), 500 µg/mL (≈ 1280 µM).

`O=c1cc[nH]c(=O)[c-]1[I+]c1ccccc1[N+](=O)[O-]` [Example 43, (2-Nitrophenyl)-iodonium 1,2,3,4-tetrahydro-2,4-dioxopyridin-3-ylide]: the MIC in [1] (setting [10]) was 500 µg/mL (≈ 1400 µM); in [1] (setting [11]) it was 50 µg/mL (≈ 140 µM); in assay [2] (setting [12]), over 500 µg/mL; in assay [2] (setting [13]), 500 µg/mL (≈ 1400 µM).

`O=c1[nH]c(=O)[c-]([I+]c2ccccc2[N+](=O)[O-])c(=O)[nH]1` [Example 44, (2-Nitrophenyl)-iodonium hexahydro-2,4,6-trioxo-5-pyrimidin-1-ylide]: the MIC in assay [1] (setting [10]) was over 500 µg/mL; in [1] (setting [11]) it was 100 µg/mL (≈ 267 µM); in assay [2] (setting [12]), 500 µg/mL (≈ 1330 µM); in [2] (setting [13]) it was 100 µg/mL (≈ 267 µM).

For `Cc1cc(=O)[c-]([I+]c2ccccc2S(C)(=O)=O)c(=O)o1` [Example 46, ((2-Methylsulfonyl)phenyl)-iodonium 3,4-dihydro-6-methyl-2,4-dioxo-2H-pyran-3-ylide], the MIC in assay [1] (setting [10]) is at most 10 µg/mL; in assay [1] (setting [11]), at most 10 µg/mL; in assay [2] (setting [12]), 50 µg/mL (≈ 123 µM); in assay [2] (setting [13]), 100 µg/mL (≈ 246 µM).

As for `Cc1cc(=O)[c-]([I+]c2ccccc2[N+](=O)[O-])c(=O)o1` [Example 47, (2-Nitrophenyl)-iodonium 3,4-dihydro-6-methyl-2,4-dioxo-2H-pyran-3-ylide], the MIC in [1] (setting [10]) was 500 µg/mL (≈ 1340 µM); in assay [1] (setting [11]), 25 µg/mL (≈ 67 µM); in assay [2] (setting [12]), 500 µg/mL (≈ 1340 µM); in [2] (setting [13]) it was 100 µg/mL (≈ 268 µM).

For the compound `O=C1c2ccccc2C(=O)[C-]1[I+]c1ccccc1[N+](=O)[O-]` [Example 48, (2-Nitrophenyl)-iodonium 2,3-dihydro-1,3-dioxo-1H-indan-2-ylide], the MIC in [1] (setting [10]) was 25 µg/mL (≈ 63.6 µM); in assay [1] (setting [11]) it was at most 1 µg/mL; in assay [2] (setting [12]) it was 250 µg/mL (≈ 636 µM); in assay [2] (setting [13]), 50 µg/mL (≈ 127 µM).

For the origin of these results see patent US5106407A, “Iodones and methods for antimicrobial use” (priority 1989, dated 1992).
